This test relates to ES-2/Fluc ovarian cancer cells. Description: ES-2/Fluc ovarian cancer model in SCID mice: whole body bioluminescence after daily i.p. RD-Sindbis/tk and GCV. It is filed as in vivo. From the text:
In the example below, SCID mice were intraperitoneally implanted with ES2 human ovarian cancer cells. In order to track and monitor disease progression, the ES2 cells were genetically engineered to express a firefly luciferase gene for bioluminescent imaging. Therefore, the bioluminescent signal intensity is proportional to the tumor load in these animals (FIG. 3B). Tumor-bearing mice were either mock treated or received daily treatments with a conventional RD-Sindbis/HSVtk vector.
An ES-2/Fluc ovarian cancer model was used to test if the HSVtk suicide gene enhanced the therapeutic effects of Sindbis vectors. […] SCID mice were inoculated with ES-2/Fluc on day 0. Daily GDEPT treatments involving i.p. injections of RD-Sindbis/tk and GCV (25 mg/Kg of body weight) were started on day 3. The Sindbis/tk −GCV group (n=5) received Sindbis/tk treatments but no GCV. The Sindbis/tk +GCV group (n=5) received both Sindbis/tk and GCV treatments. The Control group (n=5) was neither treated with Sindbis/tk nor GCV. The Control +GCV group (n=5) received no Sindbis/tk but was treated with GCV. Disease progression was monitored and the whole body photon counts were determined using the IVIS® system on days 1, 3, 6, 8, 12 and 14.

“Also recorded” adds a separate entry of the source.

In the case of `Nc1nc(O)c2ncn(COC(CO)CO)c2n1` [GCV, ganciclovir], the “effect of prodrug on tumor growth / tumor killing together with vector” value (GCV 25 mg/Kg daily i.p. together with daily i.p. RD-Sindbis/HSVtk from day 3) is “significantly improved anti-tumor efficacy; also recorded: dramatically enhanced the Sindbis HSVtk vector treatments and suppressed tumor growth; also recorded: enhanced the killing of Sindbis/tk-infected ES-2/Fluc cells in vivo”. Further, the “therapeutic effect on tumor loading” value (GCV 25 mg/Kg daily i.p. without HSVtk expression (no Sindbis/tk)) was “no therapeutic effect”.

Source of the values: patent US8282916B2, “Tumor therapy with replication competent sindbis viral vectors” (New York University, priority 2008, dated 2012).
